Source: article PMC7380166, “How to Study the Metabolism of New Psychoactive Substances for the Purpose of Toxicological Screenings—A Follow-Up Study Comparing Pooled Human Liver S9, HepaRG Cells, and Zebrafish Larvae” (Frontiers in Chemistry, 2020)

Columns and labels:
[1] = target: T1, CYP2C9 (Homo sapiens, UniProt P11712); assay: Monooxygenases activity screening, CYP2C9; format: in vitro ADME; parameters: key: +, detected; –: −, not detected; settings: 25 μM 4F-MDMB-BINACA, 50 pmol/ml enzyme, 30 min, 37°C, duplicate
T1 construct: purchased Corning; host or cells: baculovirus-transfected insect cell microsomes (Supersomes)
Experimental: (§1) According to an established protocol (Wagmann et al., [2016]), the final volume per reaction tube was 50 μl with a final 4F-MDMB-BINACA concentration of 25 μM and enzyme concentrations of 50 pmol/ml for CYP1A2, CYP2A6, CYP2B6, CYP2C8, CYP2C9, CYP2C19, CYP2D6, CYP2E1, CYP3A4, and CYP3A5, respectively, or 0.25 mg protein/ml for FMO3. Furthermore, the reaction mixture contained 90 mM phosphate buffer (pH 7.4), superoxide dismutase (200 U/ml), isocitrate (5 mM), MgCl2 (5 mM), isocitrate dehydrogenase (0.5 U/ml), and NADP^+ (1.2 mM). The phosphate buffer was replaced with Tris buffer (90 mM) for incubations with CYP2A6 and CYP2C9 according to the manufacturer's recommendation. All incubations were performed at 37°C for 30 min and terminated by adding 50 μl of ice-cold acetonitrile. Afterwards, the mixtures were centrifuged at 18,407 × g for 5 min, 70 μl of the supernatants was transferred into autosampler vials, and 1 μl was injected onto the LC-HRMS/MS system. Positive control incubations were performed with pHLM (1 mg microsomal protein/ml), and negative controls without enzyme were prepared to identify non-metabolically formed compounds. All incubations were done in duplicate.

[2] = target: T2, CYP2D6 (Homo sapiens, UniProt P10635); assay: Monooxygenases activity screening, CYP2D6; format: in vitro ADME; parameters: key: +, detected; –: −, not detected; settings: 25 μM 4F-MDMB-BINACA, 50 pmol/ml enzyme, 30 min, 37°C, duplicate
T2 construct: purchased Corning; host or cells: baculovirus-transfected insect cell microsomes (Supersomes)
Experimental: as §1

[3] = target: T3, CYP2E1 (Homo sapiens, UniProt P05181); assay: Monooxygenases activity screening, CYP2E1; format: in vitro ADME; parameters: key: +, detected; –: −, not detected; settings: 25 μM 4F-MDMB-BINACA, 50 pmol/ml enzyme, 30 min, 37°C, duplicate
T3 construct: purchased Corning; host or cells: baculovirus-transfected insect cell microsomes (Supersomes)
Experimental: as §1

[4] = target: T4, CYP3A4 (Homo sapiens, UniProt P08684); assay: Monooxygenases activity screening, CYP3A4; format: in vitro ADME; parameters: key: +, detected; –: −, not detected; settings: 25 μM 4F-MDMB-BINACA, 50 pmol/ml enzyme, 30 min, 37°C, duplicate
T4 construct: purchased Corning; host or cells: baculovirus-transfected insect cell microsomes (Supersomes)
Experimental: as §1

[5] = Monooxygenases activity screening, pHLM positive control; format: in vitro ADME, human; parameters: key: +, detected; –: −, not detected; settings: 25 μM 4F-MDMB-BINACA, 1 mg microsomal protein/ml, 30 min, 37°C, duplicate
Experimental: as §1

[6] = Incubations with pooled human liver S9 fraction (pHLS9), metabolite identification by LC-HRMS/MS; format: in vitro ADME; settings: for Absolute peak area, pHLS9 1 h [25 μM] / Absolute peak area, pHLS9 6 h [25 μM]: 25 μM 4F-MDMB-BINACA, one replicate of n = 2, n.d. = not detected; for Absolute peak area, pHLS9 1 h [25 μM]: 1 h incubation; for Absolute peak area, pHLS9 6 h [25 μM]: 6 h incubation
Experimental: According to published procedures (Richter et al., [2017b], [2019b]; Caspar et al., [2018b]; Wagmann et al., [2019b],[c]), the final incubation volume per reaction tube was 150 μl, with a final protein concentration of 2 mg/ml. The given concentrations represent final concentrations. A preincubation for 10 min at 37°C with UGT reaction mixture solution B (containing alamethicin, 25 μg/ml), MgCl2 (2.5 mM), NADP^+ (0.6 mM), isocitrate (2.5 mM), isocitrate dehydrogenase (0.8 U/ml), superoxide dismutase (100 U/ml), acetyl coenzyme A (0.1 mM), phosphate buffer (90 mM, pH 7.4), and pHLS9 (2 mg/ml) was done. Afterwards, UGT reaction mixture solution A (containing UDP glucuronic acid, 2.5 mM), PAPS (40 μM), SAM (1.2 mM), dithiothreitol (1 mM), and glutathione (10 mM) were added, as well as 25 μM 4F-MDMB-BINACA to start the reactions. The mixture was incubated for 360 min. Total amount of organic solvent in incubation mixtures was <2% (Chauret et al., [1998]). After 60 min, an aliquot of the reaction mixture (60 μl) was transferred in another reaction tube containing 20 μl of ice-cold acetonitrile to terminate the reactions. The remaining aliquot (90 μl) was incubated for an additional 300 min, and then the reactions were stopped by adding 30 μl of ice-cold acetonitrile. Thereafter, the reaction tubes were cooled at −20°C for 30 min prior to centrifugation at 18,407 × g for 2 min. The supernatants (50 μl) were transferred into autosampler vials, and 1 μl was injected onto the LC-HRMS/MS system. Control samples without pHLS9 and blank samples without substrate were prepared to confirm the absence of non-metabolically formed and interfering compounds, respectively. All incubations were performed in duplicate.
According to a previous study (Richter et al., [2019a]), a Thermo Fisher Scientific (TF, Dreieich, Germany) Dionex UltiMate 3000 Rapid Separation (RS) UHPLC system with a quaternary UltiMate 3000 RS pump and an UltiMate 3000 RS autosampler controlled by the TF Chromeleon software version 6.8 was used. The LC system was coupled to an Orbitrap-based TF Q-Exactive Plus equipped with a heated electrospray ionization II (HESI-II) source. Calibration was done prior to analysis with a Positive Cal Mix (Supelco, Bellefonte, PA, USA) at a flow rate of 3 μl/min using a syringe pump. The conditions of the LC system were as follows: TF Accucore PhenylHexyl column (100 × 2.1 mm, 2.6 μm particle size); gradient elution with 2 mM ammonium formate solution containing 0.1% (v/v) formic acid (eluent A) and 2 mM ammonium formate solution in acetonitrile/methanol (50:50, v/v) containing 0.1% (v/v) formic acid, and 1% (v/v) water (eluent B). […] The following gradient was used: 0–1.0 min hold 1% B, 1–10 min to 99% B, 10–11.5 min hold 99% B, 11.5–13.5 min hold 1% B. The HESI-II source conditions were as follows: ionization mode, positive; heater temperature, 320°C; ion transfer capillary temperature, 320°C; sheath gas, 60 arbitrary units (AU); auxiliary gas, 10 AU; spray voltage, 4.00 kV; and S-lens RF level, 50.0. Mass spectrometry experiments were performed using high-resolution (HR) full scan mode and a targeted MS^2 mode with an inclusion list for each NPS. The inclusion list contained m/z values of metabolites, which were likely to be formed for example hydroxy, oxo, carboxy, dealkyl, demethylenylated, and defluorinated metabolites (phase I) as well as sulfates and glucuronides (phase II) and combinations of them. Full scan settings were as follows: resolution, 35,000; automatic gain control (AGC) target, 3e6; maximum injection time (IT), 120 ms; scan ranges, 3,4-DMA-NBOMe m/z 100–700, ephylone m/z 200–600, 4F-MDMB-BINACA m/z 150–700, 4F-PHP m/z 200–600, and 1P-LSD m/z 250–700. The settings for the targeted MS^2 mode with the respective inclusion lists were as follows: resolution, 17,500; AGC target, 2e5; maximum IT, 250 ms; loop count, 5; isolation window, 1.0 m/z; stepped normalized collision energy (NCE), 17.5, 35, 52.5%; pick others, enabled. […]

T4 sequence (P08684 whole entry): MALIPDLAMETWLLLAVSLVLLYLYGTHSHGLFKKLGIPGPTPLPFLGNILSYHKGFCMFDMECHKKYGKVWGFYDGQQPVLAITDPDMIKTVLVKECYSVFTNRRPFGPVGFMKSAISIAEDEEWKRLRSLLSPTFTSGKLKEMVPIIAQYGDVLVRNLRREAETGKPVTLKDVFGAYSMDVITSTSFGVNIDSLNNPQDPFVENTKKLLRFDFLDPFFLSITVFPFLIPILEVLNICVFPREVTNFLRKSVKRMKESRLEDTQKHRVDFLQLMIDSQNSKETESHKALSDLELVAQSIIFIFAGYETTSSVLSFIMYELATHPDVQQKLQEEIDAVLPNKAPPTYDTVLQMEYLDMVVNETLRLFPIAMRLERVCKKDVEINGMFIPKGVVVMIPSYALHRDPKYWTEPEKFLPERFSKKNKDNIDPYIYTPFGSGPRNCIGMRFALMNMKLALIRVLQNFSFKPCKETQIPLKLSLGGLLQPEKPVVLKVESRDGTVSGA
T3 sequence (P05181 whole entry): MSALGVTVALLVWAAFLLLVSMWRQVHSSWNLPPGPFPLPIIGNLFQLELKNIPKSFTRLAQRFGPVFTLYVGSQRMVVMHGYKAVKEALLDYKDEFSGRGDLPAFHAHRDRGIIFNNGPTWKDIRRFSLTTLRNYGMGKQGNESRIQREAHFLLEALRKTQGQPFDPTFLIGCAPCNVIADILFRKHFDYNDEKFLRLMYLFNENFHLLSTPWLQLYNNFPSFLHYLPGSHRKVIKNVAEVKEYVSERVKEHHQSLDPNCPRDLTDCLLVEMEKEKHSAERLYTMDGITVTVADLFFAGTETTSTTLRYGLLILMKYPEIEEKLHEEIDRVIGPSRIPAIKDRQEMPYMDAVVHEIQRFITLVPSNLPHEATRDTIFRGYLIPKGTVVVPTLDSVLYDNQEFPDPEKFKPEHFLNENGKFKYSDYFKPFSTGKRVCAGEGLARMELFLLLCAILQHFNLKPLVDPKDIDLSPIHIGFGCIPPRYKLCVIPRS
T2 sequence (P10635 whole entry): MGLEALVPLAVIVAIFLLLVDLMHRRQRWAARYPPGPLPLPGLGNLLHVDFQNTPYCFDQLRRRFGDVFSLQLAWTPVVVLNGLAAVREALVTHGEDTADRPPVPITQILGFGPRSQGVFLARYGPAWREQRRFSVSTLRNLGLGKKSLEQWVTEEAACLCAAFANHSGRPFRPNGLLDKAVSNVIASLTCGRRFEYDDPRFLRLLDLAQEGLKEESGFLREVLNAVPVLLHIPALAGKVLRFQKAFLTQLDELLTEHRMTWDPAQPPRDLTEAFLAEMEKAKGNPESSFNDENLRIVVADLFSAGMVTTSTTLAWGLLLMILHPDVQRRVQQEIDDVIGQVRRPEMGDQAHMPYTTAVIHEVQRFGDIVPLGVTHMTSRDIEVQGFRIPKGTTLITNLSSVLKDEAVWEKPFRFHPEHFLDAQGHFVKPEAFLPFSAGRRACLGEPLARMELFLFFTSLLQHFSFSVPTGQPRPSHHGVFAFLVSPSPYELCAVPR
T1 sequence (P11712 whole entry): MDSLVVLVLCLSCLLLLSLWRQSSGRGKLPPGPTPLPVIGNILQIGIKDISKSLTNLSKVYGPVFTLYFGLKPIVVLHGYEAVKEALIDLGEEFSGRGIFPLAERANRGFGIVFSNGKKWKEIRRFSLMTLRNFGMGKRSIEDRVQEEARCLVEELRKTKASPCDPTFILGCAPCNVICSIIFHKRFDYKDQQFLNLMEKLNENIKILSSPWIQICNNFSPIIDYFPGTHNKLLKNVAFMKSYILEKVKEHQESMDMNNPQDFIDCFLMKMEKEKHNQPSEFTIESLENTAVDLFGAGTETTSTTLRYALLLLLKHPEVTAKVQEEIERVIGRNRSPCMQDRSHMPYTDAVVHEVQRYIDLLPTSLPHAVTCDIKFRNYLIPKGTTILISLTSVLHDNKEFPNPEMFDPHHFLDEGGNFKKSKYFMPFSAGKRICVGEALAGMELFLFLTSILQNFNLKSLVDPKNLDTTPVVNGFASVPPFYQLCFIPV

In the case of `O=C(O)c1nn(CCCCF)c2ccccc12` [MB1], the “Detection of metabolite in incubation with CYP2C9” value (from here on “Detection … with CYP2C9”) [1] is reported as “–”, the “Detection of metabolite in incubation with CYP2D6” value (from here on “Detection … with CYP2D6”) [2] is reported as “–” and the “Detection of metabolite in incubation with CYP2E1” value (from here on “Detection … with CYP2E1”) [3] is reported as “–”. The “Detection of metabolite in incubation with CYP3A4” value (from here on “Detection … with CYP3A4”) [4] was “–” and the “Detection of metabolite in incubation with pHLM” value (from here on “Detection … with pHLM”) [5] was “+”.
For `COC(=O)[C@@H](NC(=O)c1nn(CCCCO)c2ccccc12)C(C)(C)C` [MB11], the “Absolute peak area, pHLS9 1 h [25 μM]” value [6] was 4.27E+06, the “Absolute peak area, pHLS9 6 h [25 μM]” value [6] was 3.89E+05 and the “Detection … with CYP2C9” value [1] was “–”. For the same compound, the “Detection … with CYP2D6” value [2] was “–”, the “Detection … with CYP2E1” value [3] was “–” and the “Detection … with CYP3A4” value [4] was “–”. For the same compound, the “Detection … with pHLM” value [5] was “+”.
With `CC(C)(C)C(NC(=O)c1nn(CCCCF)c2ccccc12)C(=O)O` (stereo not shown) [MB8] the “Absolute peak area, pHLS9 1 h [25 μM]” value [6] was 1.01E+08, the “Absolute peak area, pHLS9 6 h [25 μM]” value [6] was 2.77E+08 and the “Detection … with CYP2C9” value [1] was “–”. For the same compound, the “Detection … with CYP2D6” value [2] was “–”, the “Detection … with CYP2E1” value [3] was “–” and the “Detection … with CYP3A4” value [4] was “–”. For the same compound, the “Detection … with pHLM” value [5] was “+”.
In the case of `COC(=O)C(NC(=O)c1nn(CCCCF)c2ccccc12)C(C)(C)C` (stereo not shown) [4F-MDMB-BINACA, methyl 2-[1-(4-fluorobutyl)-1H-indazole-3-carbonyl]amino-3,3-dimethylbutanoate], the “Number of phase I metabolites detected, pHLS9 [25 μM]” value ([6]; 25 μM) is reported as 15, the “Absolute peak area, pHLS9 1 h [25 μM]” value [6] is reported as 9.37E+08 and the “Absolute peak area, pHLS9 6 h [25 μM]” value [6] is reported as 2.17E+08. For the same compound, the “Relative number of matches with the four most abundant signals in human plasma, pHLS9 [25 μM]” value ([6]; plasma, human data for ephylone and 4F-PHP from Wagmann et al., [2019b]) was 100% and the “Relative number of matches with the four most abundant signals in human urine, pHLS9 [25 μM]” value ([6]; urine, human data for ephylone and 4F-PHP from Wagmann et al., [2019b]) was 75%.
In the case of `COC(=O)[C@@H](NC(=O)c1nn(CCCCF)c2ccccc12)C(C)(C)CO` [MB16], the “Absolute peak area, pHLS9 1 h [25 μM]” value [6] is reported as 1.70E+05, the “Detection … with CYP2C9” value [1] is reported as “–” and the “Detection … with CYP2D6” value [2] is reported as “–”. For the same compound, the “Detection … with CYP2E1” value [3] was “–”, the “Detection … with CYP3A4” value [4] was “–” and the “Detection … with pHLM” value [5] was “+”.
For `COC(=O)[C@@H](NC(=O)c1n[nH]c2ccccc12)C(C)(C)C` [MB4], the “Absolute peak area, pHLS9 1 h [25 μM]” value [6] was 5.62E+06, the “Absolute peak area, pHLS9 6 h [25 μM]” value [6] was 2.82E+05 and the “Detection … with CYP2C9” value [1] was “–”. For the same compound, the “Detection … with CYP2D6” value [2] was “–”, the “Detection … with CYP2E1” value [3] was “–” and the “Detection … with CYP3A4” value [4] was “+”. The “Detection … with pHLM” value [5] was “+”.
